Tested on: rhesus monkey PGP
Experiment: Polarization of vinblastine transport in Transwells, rhesus monkey PGP transfected LLC-PK1 cell monolayers
Conditions: PGP transfected LLC-PK1 cells, compared with control cells; vinblastine 0.1 μM
Text: Rhesus monkey PGP cDNA (SEQ ID NO:1) is introduced into a clonal population of LLC-PK1 cells in a vector that confers resistance to hygromycin B. LLC-PK1 cells are obtained from the American Type Culture Collections and are propagated in Medium 199 supplemented to 7% with fetal bovine serum. LLC-PK1 cells are recloned prior to transfection in order to assure homogeneity of the cell population. Briefly, rhesus monkey PGP cDNA is incorporated into the p222CMV vector. […] The PGP cDNA is under the control of the cytomegalovirus (CMV) immediate early promoter. The vector confers resistance to hygromycin B. Cells (in 0.4 mL) and DNA (10 to 20 μg) were transfected by electroporation using a BTX Electro cell manipulator model 600 using a 2 mm gap cell, 100V, 2500 μF capacitance and 72 ohm resistance. […] Expression of PGP is measured by the polarization of vinblastine (0.1 μM) transport in Transwells™.
LLC-PK1 cell based transport studies are conducted in 24 well Transwells™ (Corning Costar, Catalog number 3415). […] Transport is measured under sink conditions in both the apical to basolateral (A to B) and basolateral to apical (B to A) directions. […] Quantitation of the amount of compound transported is by liquid scintillation counting (vinblastine) or HPLC with UV or mass spectrometric detection.
Functional expression of rhesus monkey PGP is measured by the polarization of transport of vinblastine.

Structure (SMILES): CC[C@]1(O)C[C@@H]2CN(CCc3c([nH]c4ccccc34)[C@@](C(=O)OC)(c3cc4c(cc3OC)N(C)[C@H]3[C@@](O)(C(=O)OC)[C@H](OC(C)=O)[C@]5(CC)C=CCN6CC[C@]43[C@@H]65)C2)C1 [vinblastine]
- B to A/A to B ratio (polarization of transport): much higher ratio

From US6855812B2, “P-glycoproteins and uses thereof” (Becton, Dickinson and Company, priority 2001, dated 2005)
